# Literature values as cited in patent US20100310597A1, “ANTI-OFLOXACIN MONOCLONAL ANTIBODY AND IMMUNOASSAY OF OFLOXACIN USING THE SAME” (SEKISUI MEDICAL CO., LTD, priority 2007, published 2010).
# Details: background statement
smiles,measurement,value
"C[C@H]1COc2c(N3CCN(C)CC3)c(F)cc3c(=O)c(C(=O)O)cn1c23 [levofloxacin, (−)-(S)-9-fluoro-2,3-dihydro-3-methyl-10-(4-methyl-1-piperazinyl)-7-oxo-7H-pyrido[1,2,3-de][1,4]benzoxazine-6-carboxylic acid]",Antibiotic activity relative to ofloxacin,approximately twice
